US20110045032A1 (priority 2001, published 2011)

How the values were obtained:
[1] = Serum and BAL DHEA and DHEA-S levels (Example 26); assay type: in vivo, rabbits; settings: rabbit, serum, inhaled, 10 mg/day; twenty-four hours after the last of seven daily treatments; prior 4.7
Procedure: This study defines the effect of 7 days of treatment with DHEA-S on allergen-induced bronchial hyperresponsiveness (BHR), early and late phase responses, and pulmonary inflammation in dust mite-sensitized rabbits. Baseline BHR and inflammation were first determined. DHEA-S (5 mg/ml, 2 ml nebulized) or an equivalent volume of vehicle was delivered once per day via nebulization through a pediatric facemask covering the nose and mouth on days 1 through 7. On day 8, 24 hours after the last treatment, allergen challenge, pulmonary function testing and BALF were performed. On day 9, 24 hours after allergen challenge a histamine challenge was performed and the lungs removed for histology. The study includes 5 animals studied under a crossover design. There was a 3 week resting period between study arms and lungs were taken during the second treatment arm only. The treatment with DHEA-S led to the changes in the disease status of the animals described in the following paragraph.

[2] = system: dust mite-sensitized cynomolgus monkeys; test: BALF cell count after allergen challenge (Example 24); assay type: in vivo; settings: for total leukocytes in BALF: DHEA-S treatment group
Procedure: This study defines the effect of 5 days of treatment with DHEA-S on allergen-induced early phase response, and pulmonary inflammation in dust mite-sensitized cynomolgus monkeys. Baseline parameters were measured the week prior to treatment. DHEA-S (5 mg/ml, 2 ml nebulized) or an equivalent volume of saline was delivered once per day via nebulization (Pari LC+) through a canine facemask covering the nose and mouth on days 1 through 5. Allergen challenge and pulmonary function testing were performed on day 3 several hours after drug treatment, and broncho-alveolar lavage fluid BALF) was collected 48 hours post-challenge. The study includes 6 animals studied under a crossover design with a minimum of 4 weeks rest between study arms. The treatment with DHEA-S led to the following changes in the disease status of the animals: […]

[3] = Acute inhalation toxicity in dogs; assay type: in vivo; settings: dog, in vivo, inhaled; preclinical toxicology studies; not achieved at this dose; read-out: maximum tolerated dose
Procedure: (§1) Other findings were minor in nature and detailed in the reports that follow. Therefore, nebulization of an aqueous solution was determined to be feasible but not practical due to the inability to achieve a sufficient safety factor to support clinical trials.

dogs = test: Acute inhalation toxicity in dogs; assay type: in vivo; settings: inhalation
Procedure: as §1

ragweed-sensitized mice = test: BAL cell populations after methacholine challenge (Example 28); assay type: in vivo; settings: Ragweed alone 13.8%; P<0.05
Procedure: Two groups of mice were sensitized with two intraperitoneal injections and one intranasat administration of ragweed allergen (Ambrosia artemistifolia) on days 0, 4 and 11 respectively. A third group was treated similarly with saline to serve as non-allergic controls. The next two days, the treatment group animals were exposed to DHEA-S delivered as an aerosol (5 mg/ml suspension in saline, 2 ml nebulized) using the whole-body plethysmograph system (Buxco Electronics, Inc., Sharon, Conn.) and a DeVilbiss ultrasonic nebulizer. Twenty-four hours after the last drug exposure, mice were challenged with increasing concentrations of methacholine to determine bronchial hyperresponsiveness and then lavaged to determine relative changes in cell populations in BAL fluid.

[4] = system: dust mite-sensitized cynomolgus monkeys; test: Early phase pulmonary function response to allergen (Example 24); assay type: in vivo
Procedure: This study defines the effect of 5 days of treatment with DHEA-S on allergen-induced early phase response, and pulmonary inflammation in dust mite-sensitized cynomolgus monkeys. Baseline parameters were measured the week prior to treatment. DHEA-S (5 mg/ml, 2 ml nebulized) or an equivalent volume of saline was delivered once per day via nebulization (Pari LC+) through a canine facemask covering the nose and mouth on days 1 through 5. Allergen challenge and pulmonary function testing were performed on day 3 several hours after drug treatment, and broncho-alveolar lavage fluid BALF) was collected 48 hours post-challenge. The study includes 6 animals studied under a crossover design with a minimum of 4 weeks rest between study arms. The treatment with DHEA-S led to the following changes in the disease status of the animals:
Effects on airway obstruction were measured by changes in dynamic compliance in response to allergen challenge. Allergic Cynomolgus monkeys were monitored for 15 minutes following allergen challenge and the values plotted against time. Changes in dynamic compliance were determined by the % change in compliance as compared to the animal's initial saline value recorded prior to challenge. Changes in response to allergen and/or treatment were calculated using the area under the curve (AUC) where an AUC unit is defined as % change×minutes. Treatment with DHEA-S attenuated the drop in airway compliance following allergen challenge by 87% as compared to saline treatment. With saline treatment, the total AUC was −394±127 units compared to −49±116 units for animals treated with DHEA-S. See, FIGS. 4.3.1.1; 4.3.1.2. This difference in the total AUC for vehicle and DHEA-S treated animals was determined to be significant using Student's t-test for paired observations, p=0.035. Likewise, treatment with DHEA-S attenuated the increase in airway resistance following allergen challenge by 90% as compared to saline treatment.

[5] = system: dust mite-sensitized rabbits; test: Lung histology (Example 27); assay type: in vivo; settings: compared to saline
Procedure: This follow-up study compared the effects of DHEA-S and Puimicort® (budesonide inhalation suspension) on allergen-induced bronchial hyperresponsiveness (BHR) to histamine and pulmonary inflammation in dust mite-sensitized rabbits. The study included 18 animals divided into 3 treatment groups: saline, DHEA-S, and Puimicort. The animals were treated for once per day for 5 consecutive days via nebulization through a pediatric facemask covering the nose and mouth. Treatments were DHEA-S, 10 mg/day (5 mg/ml), Pulmicort Respules, 0.5 mg/day (0.5 mg/2 ml, note: this is the standard human dose) or saline (2 ml). A dust mite challenge was performed on day 4, and development of airway inflammation was assessed 6 hours and 30 hours after dust mite challenge. Histamine sensitivity was assessed 30 hours after challenge (day 5) and the lungs removed for histology.
Analysis of lung sections indicated a moderate level of pulmonary inflammation in all groups. No differences in the level of monocyte phagocytic hyperplasia, airway and blood vessel cuffing by inflammatory cells, pneumonitis, pneumonia, bronchial associated lymphoidal tissue hyperplasia, septal edema, hemorrhage, alveolar edema, or bronchitis/bronchiolitis was observed, although monocyte phagocytic hyperplasia tended to be higher in the Pulmicort and DHEA-S groups, and bronchitis tended to be lower.

[6] = Acute inhalation toxicity in rats; assay type: in vivo; settings: rat, in vivo, inhaled; preclinical toxicology studies; not achieved at this dose; read-out: maximum tolerated dose
Procedure: as §1

rats = test: Acute inhalation toxicity in rats; assay type: in vivo; settings: inhalation
Procedure: as §1

[7] = 48 hours after allergen challenge, compared to saline
[8] = up to the maximum feasible dose

**Q.** For CC12CCC3C(CC=C4CC(OS(=O)(=O)[O-])CCC43C)C1CCC2=O.[Na+] (stereo not drawn) [DHEA-S, Dehydroepiandrosterone sulfate], which concentration at 24 h after the last dose [1] is on record?
**A.** 49 ng/mL

**Q.** And the “decrease of % eosinophils in BALF” value [2, 7]?
**A.** approximately 57%

**Q.** What about the “decrease of percentage of neutrophils in BALF” value [2, 7] of the same compound?
**A.** 42%

**Q.** What about the “eosinophil numbers in BALF less than saline” value ([2]; 48 hours after allergen challenge, did not reach significance) of the same compound?
**A.** approximately 64%

**Q.** And the “eosinophil numbers in BALF” value ([2]; 48 hours after allergen challenge, saline 4.3±1.7)?
**A.** 1.6±0.8 ×10^4 cells/ml

**Q.** What about the “total leukocytes in BALF” value ([2]; 48 hours after allergen challenge) of the same compound?
**A.** 39.4 ×10^4 cell/ml

**Q.** What about the “total leukocytes in BALF” value ([2]; before allergen challenge) of the same compound?
**A.** 34.5 ×10^4 cell/ml

**Q.** And the “absolute number of neutrophils in BALF” value ([2]; after allergen challenge)?
**A.** 9.7±2.2 ×10^4 cells/ml

**Q.** And the “neutrophil influx level vs pre-challenge” value ([2]; cynomolgus monkey, in vivo)?
**A.** not significantly higher than pre-challenge levels

**Q.** And the “percentage of eosinophils before and after allergen challenge” value ([2]; cynomolgus monkey, in vivo)?
**A.** not significantly different

**Q.** And the MTD [3]?
**A.** > 2 mg/kg/day

**Q.** What about the maximum tolerated dose (dogs) of the same compound?
**A.** could not be achieved

**Q.** What about the “adverse effects to the respiratory tract” value (dogs; [8]) of the same compound?
**A.** did not produce any adverse affects

**Q.** And the “percent neutrophils in BAL” value (ragweed-sensitized mice)?
**A.** 3.2%

**Q.** And the “total area under the curve for the change in compliance following allergen challenge” value ([4]; AUC unit = % change×minutes, 15 minutes, saline −394±127)?
**A.** −49±116 units

**Q.** And the “total area under the curve for the change in resistance following allergen challenge” value ([4]; AUC unit = % change×minutes, saline 564±266)?
**A.** 54±90 units

**Q.** And the “attenuation of the increase in airway resistance following allergen challenge” value ([4]; compared to saline treatment)?
**A.** 90%

**Q.** What about the “attenuation of the drop in airway compliance following allergen challenge” value ([4]; nebulized 5 mg/ml, 2 ml once per day, 5 days, compared to saline treatment) of the same compound?
**A.** 87%

**Q.** What about the monocyte phagocytic hyperplasia ([5]; not significant) of the same compound?
**A.** tended to increase

**Q.** What about the necrotizing bronchitis ([5]; not significant) of the same compound?
**A.** tended to decrease

**Q.** And the pavementing ([5]; statistically significant)?
**A.** decreased pavementing

**Q.** What about the MTD [6] of the same compound?
**A.** > 11 mg/kg/day

**Q.** And the maximum tolerated dose (rats)?
**A.** could not be achieved

**Q.** What about the “adverse effects to the respiratory tract” value (rats; [8]) of the same compound?
**A.** did not produce any adverse affects
